# Legend:
# Human Melanocortin (MC3) = target: T1, Human Melanocortin (MC3) (Homo sapiens, UniProt P41968); experiment: Radioligand binding, human melanocortin MC3 membranes, FlashPlate, [125I]-NDP-αMSH; details: compound at 10 μM; for A3 radioligand binding inhibition: human melanocortin MC3 membranes
# T1 construct: purchased Perkin Elmer Biosignal
# Procedure, shortened: (§1)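 Cloned human receptor membranes were coated onto FlashPlate wells and incubated with radioligand and compound (added from a 0.5 mM DMSO daughter plate) for 1 hour at room temperature in the dark. Scintillation counting gave percent inhibition, with DMSO defining total and reference ligand defining non-specific binding.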
# [1] = target: T2, Human neuropeptide Y (NPY-Y1) (Homo sapiens, UniProt P25929); experiment: Radioligand binding, human neuropeptide Y NPY-Y1 membranes, FlashPlate, [125I]-PYY; details: compound at 10 μM
# T2 construct: purchased Perkin Elmer Biosignal
# T2 sequence (P25929 1-384): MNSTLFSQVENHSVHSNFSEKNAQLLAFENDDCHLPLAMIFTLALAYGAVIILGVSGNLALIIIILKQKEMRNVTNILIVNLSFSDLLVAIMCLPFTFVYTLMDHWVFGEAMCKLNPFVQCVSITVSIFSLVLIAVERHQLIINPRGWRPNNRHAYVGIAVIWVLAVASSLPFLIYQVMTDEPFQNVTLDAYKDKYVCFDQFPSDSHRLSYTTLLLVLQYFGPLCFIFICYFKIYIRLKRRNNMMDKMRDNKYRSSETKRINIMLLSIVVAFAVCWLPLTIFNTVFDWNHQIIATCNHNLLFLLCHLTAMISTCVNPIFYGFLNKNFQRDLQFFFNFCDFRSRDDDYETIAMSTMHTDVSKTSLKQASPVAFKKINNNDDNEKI
# Procedure, shortened: as §1
# Human δ-opioid (DOP) = target: T3, Human δ-opioid (DOP) (Homo sapiens, UniProt P41143); experiment: Radioligand binding, human δ-opioid (DOP) membranes, FlashPlate, [3H]-Bremazocine; details: compound at 10 μM; for A1 radioligand binding inhibition: human δ-opioid (DOP) membranes
# T3 construct: purchased Perkin Elmer Biosignal
# Procedure, shortened: as §1
# Human μ-opioid (MOP) = target: T4, Human μ-opioid (MOP) (Homo sapiens, UniProt P35372); experiment: Radioligand binding, human μ-opioid (MOP) membranes, FlashPlate, [3H]-Naloxone; details: compound at 10 μM; for A7 radioligand binding inhibition: human μ-opioid (MOP) membranes
# T4 construct: purchased Perkin Elmer Biosignal
# Procedure, shortened: as §1
# [2] = target: T5, Human melanin-concentrating hormone (MCH1) (Homo sapiens, UniProt Q99705); experiment: Radioligand binding, human melanin-concentrating hormone MCH1 membranes, FlashPlate, [125I]-S36057; details: compound at 10 μM; for A6 radioligand binding inhibition: human MCH1 membranes
# T5 construct: purchased Perkin Elmer Biosignal
# Procedure, shortened: as §1
# Human Melanocortin (MC4) = target: T6, Human Melanocortin (MC4) (Homo sapiens, UniProt P32245); experiment: Radioligand binding, human melanocortin MC4 membranes, FlashPlate, [125I]-NDP-αMSH; details: compound at 10 μM; for A4 radioligand binding inhibition: human melanocortin MC4 membranes
# T6 construct: purchased Perkin Elmer Biosignal
# Procedure, shortened: as §1
# Human opioid (ORL1) = target: T7, Human opioid (ORL1) (Homo sapiens, UniProt P41146); experiment: Radioligand binding, human opioid ORL1 membranes, FlashPlate, [125I]-Nociceptin; details: compound at 10 μM
# T7 construct: purchased Perkin Elmer Biosignal
# Procedure, shortened: as §1
# Human neurokinin (NK1) = target: T8, Human neurokinin (NK1) (Homo sapiens, UniProt P25103); experiment: Radioligand binding, human neurokinin NK1 membranes, filtration, [125I]-Substance P; details: compound at 10 μM; for A8 radioligand binding inhibition: human neurokinin NK1 membranes
# T8 construct: purchased Perkin Elmer Biosignal
# Procedure, shortened: (§2)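 Percent inhibition of radioligand binding measured on recombinant human membranes: NK1 with [125I]-Substance P, KOP with [3H]-Diprenorphine. Incubation 1 h at room temperature, then harvest onto 0.3% PEI-soaked filters, cold Tris-HCl pH 7.4 washes and scintillation counting; non-specific binding from reference ligand wells.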
# Human κ-Opioid (KOP) = target: T9, Human κ-Opioid (KOP) (Homo sapiens, UniProt P41145); experiment: Radioligand binding, human κ-opioid (KOP) membranes, filtration, [3H]-Diprenorphine; details: compound at 10 μM; for A2 radioligand binding inhibition: human κ-opioid (KOP) membranes
# T9 construct: purchased Perkin Elmer Biosignal
# Procedure, shortened: as §2
# Mouse urotensin (mUR2) = target: T10, Mouse urotensin (mUR2) (Mus musculus, UniProt Q8VIH9); experiment: Radioligand binding, mouse urotensin mUR2 membranes, FlashPlate, [125I]-Urotensin II; details: compound at 10 μM; for A11 radioligand binding inhibition: mouse urotensin mUR2 membranes
# T10 construct: purchased Perkin Elmer Biosignal
# T10 sequence (Q8VIH9 1-385): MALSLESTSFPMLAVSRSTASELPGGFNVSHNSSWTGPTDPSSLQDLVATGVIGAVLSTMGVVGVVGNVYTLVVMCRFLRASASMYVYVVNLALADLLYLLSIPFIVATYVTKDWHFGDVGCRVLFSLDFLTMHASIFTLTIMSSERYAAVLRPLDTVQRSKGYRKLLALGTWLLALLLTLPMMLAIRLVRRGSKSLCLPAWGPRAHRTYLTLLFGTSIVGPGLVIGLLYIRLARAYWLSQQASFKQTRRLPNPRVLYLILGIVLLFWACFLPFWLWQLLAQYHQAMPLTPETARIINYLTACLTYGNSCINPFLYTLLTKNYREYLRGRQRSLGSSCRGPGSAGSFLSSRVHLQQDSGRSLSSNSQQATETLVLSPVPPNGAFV
# Procedure, shortened: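 Cloned mouse urotensin (mUR2) receptor membranes from Perkin Elmer Biosignal were immobilized in FlashPlate microplates using a proprietary coating. Each well got 19.5 μl buffer, then 0.5 μl of DMSO, reference ligand, or compound. Adding 5 μl of [125I]-Urotensin II, diluted to 5× final concentration in binding buffer, started binding. Plates were sealed with TopSeal-A and incubated 1 hour at room temperature in the dark. Wells were counted for 30 seconds each on a TopCount after a 60-second delay, and percentage inhibition was calculated.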
# Human melanocortin (MC5) = target: T11, Human melanocortin (MC5) (Homo sapiens, UniProt P33032); experiment: Radioligand binding, human melanocortin MC5 membranes, FlashPlate, [125I]-NDP-αMSH; details: compound at 10 μM; for A5 radioligand binding inhibition: human melanocortin MC5 membranes
# T11 construct: purchased Perkin Elmer Biosignal
# Procedure, shortened: as §1
# T5 sequence (Q99705 whole entry): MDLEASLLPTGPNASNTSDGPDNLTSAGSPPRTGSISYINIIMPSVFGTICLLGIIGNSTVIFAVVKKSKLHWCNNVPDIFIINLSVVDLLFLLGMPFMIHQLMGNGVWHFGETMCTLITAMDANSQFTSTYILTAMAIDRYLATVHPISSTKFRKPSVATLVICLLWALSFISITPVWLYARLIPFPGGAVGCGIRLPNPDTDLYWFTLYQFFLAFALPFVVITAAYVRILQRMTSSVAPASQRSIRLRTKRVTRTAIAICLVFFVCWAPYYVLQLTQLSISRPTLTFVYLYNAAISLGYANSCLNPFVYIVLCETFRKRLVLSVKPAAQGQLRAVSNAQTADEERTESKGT
# T9 sequence (P41145 whole entry): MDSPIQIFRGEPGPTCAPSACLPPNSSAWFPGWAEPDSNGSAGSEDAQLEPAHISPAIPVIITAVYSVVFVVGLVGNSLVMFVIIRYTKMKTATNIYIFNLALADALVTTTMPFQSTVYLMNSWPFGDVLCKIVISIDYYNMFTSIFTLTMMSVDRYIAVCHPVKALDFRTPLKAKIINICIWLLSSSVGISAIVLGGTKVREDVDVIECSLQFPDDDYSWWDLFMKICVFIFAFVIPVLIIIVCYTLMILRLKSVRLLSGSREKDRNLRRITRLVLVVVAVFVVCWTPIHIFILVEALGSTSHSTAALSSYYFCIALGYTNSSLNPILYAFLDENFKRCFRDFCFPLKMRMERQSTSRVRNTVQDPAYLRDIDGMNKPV
# T6 sequence (P32245 whole entry): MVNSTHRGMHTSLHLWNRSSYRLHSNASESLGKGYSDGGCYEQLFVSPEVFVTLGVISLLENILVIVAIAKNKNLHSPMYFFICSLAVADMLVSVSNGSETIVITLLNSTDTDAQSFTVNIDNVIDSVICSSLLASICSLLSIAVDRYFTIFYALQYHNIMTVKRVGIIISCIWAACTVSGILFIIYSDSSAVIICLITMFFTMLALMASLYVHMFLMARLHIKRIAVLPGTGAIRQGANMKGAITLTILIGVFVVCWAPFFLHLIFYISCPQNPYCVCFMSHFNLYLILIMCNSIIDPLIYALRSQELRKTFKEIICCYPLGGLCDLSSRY
# T11 sequence (P33032 whole entry): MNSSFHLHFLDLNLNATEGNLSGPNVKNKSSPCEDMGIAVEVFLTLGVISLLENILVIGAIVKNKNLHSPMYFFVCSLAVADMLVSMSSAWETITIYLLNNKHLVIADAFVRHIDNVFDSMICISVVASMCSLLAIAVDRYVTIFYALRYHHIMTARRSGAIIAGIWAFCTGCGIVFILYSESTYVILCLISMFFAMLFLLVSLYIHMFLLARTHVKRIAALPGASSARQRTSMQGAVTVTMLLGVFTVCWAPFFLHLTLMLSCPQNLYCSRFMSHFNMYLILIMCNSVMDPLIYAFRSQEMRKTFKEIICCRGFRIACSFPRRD
# T8 sequence (P25103 whole entry): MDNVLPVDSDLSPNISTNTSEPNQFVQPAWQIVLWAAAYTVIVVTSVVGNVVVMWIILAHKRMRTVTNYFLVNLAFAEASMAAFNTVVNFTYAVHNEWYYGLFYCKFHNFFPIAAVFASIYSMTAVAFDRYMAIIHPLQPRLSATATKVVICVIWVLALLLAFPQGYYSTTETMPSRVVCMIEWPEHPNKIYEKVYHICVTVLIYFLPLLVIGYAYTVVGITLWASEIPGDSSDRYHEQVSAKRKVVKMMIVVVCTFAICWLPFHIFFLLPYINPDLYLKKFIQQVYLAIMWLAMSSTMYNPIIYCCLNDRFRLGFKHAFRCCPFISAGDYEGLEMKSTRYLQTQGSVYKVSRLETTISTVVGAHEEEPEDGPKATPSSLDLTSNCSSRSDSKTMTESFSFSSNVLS
# T4 sequence (P35372 whole entry): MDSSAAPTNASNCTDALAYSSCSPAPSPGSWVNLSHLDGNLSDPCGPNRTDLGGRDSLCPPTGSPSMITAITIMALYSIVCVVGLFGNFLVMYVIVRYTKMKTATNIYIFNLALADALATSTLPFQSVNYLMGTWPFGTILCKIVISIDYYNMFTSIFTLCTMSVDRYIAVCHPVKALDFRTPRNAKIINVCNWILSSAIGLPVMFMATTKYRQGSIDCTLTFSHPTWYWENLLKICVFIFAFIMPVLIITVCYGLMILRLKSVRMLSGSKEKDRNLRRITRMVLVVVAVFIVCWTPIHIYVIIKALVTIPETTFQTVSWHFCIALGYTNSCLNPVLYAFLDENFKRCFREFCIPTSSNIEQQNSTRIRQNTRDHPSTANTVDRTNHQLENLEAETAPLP
# T7 sequence (P41146 whole entry): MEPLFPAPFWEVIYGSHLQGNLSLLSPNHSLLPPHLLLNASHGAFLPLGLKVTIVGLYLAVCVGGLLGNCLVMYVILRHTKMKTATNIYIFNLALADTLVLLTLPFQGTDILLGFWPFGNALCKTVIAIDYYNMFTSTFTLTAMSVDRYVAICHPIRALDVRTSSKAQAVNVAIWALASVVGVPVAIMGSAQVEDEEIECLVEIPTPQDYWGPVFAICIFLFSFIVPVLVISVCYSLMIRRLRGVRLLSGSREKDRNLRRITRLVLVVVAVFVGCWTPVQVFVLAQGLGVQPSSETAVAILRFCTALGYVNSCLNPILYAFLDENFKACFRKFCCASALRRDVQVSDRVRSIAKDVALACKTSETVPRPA
# T3 sequence (P41143 whole entry): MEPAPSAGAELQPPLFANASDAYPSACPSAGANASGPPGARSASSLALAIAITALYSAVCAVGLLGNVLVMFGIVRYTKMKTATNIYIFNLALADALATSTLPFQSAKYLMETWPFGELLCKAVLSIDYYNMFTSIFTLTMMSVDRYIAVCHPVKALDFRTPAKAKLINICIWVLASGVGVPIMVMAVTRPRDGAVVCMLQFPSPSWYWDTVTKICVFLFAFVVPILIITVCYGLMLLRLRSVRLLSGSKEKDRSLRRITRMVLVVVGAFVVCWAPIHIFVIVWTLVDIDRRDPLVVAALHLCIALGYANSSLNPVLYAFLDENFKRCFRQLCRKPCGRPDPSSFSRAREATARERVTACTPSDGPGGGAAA
# T1 sequence (P41968 whole entry): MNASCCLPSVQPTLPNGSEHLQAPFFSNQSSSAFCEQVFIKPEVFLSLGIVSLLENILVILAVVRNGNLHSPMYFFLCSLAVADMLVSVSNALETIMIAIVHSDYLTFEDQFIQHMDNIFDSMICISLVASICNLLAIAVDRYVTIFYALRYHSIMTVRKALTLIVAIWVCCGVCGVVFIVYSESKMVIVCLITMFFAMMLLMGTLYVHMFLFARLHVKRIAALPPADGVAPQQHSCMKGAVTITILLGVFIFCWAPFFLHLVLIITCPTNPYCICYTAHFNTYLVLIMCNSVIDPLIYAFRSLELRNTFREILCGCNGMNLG
structure (smiles),measurement,setting,value
NCCCC(=O)NC1C(OCc2ccc3ccccc3c2)OC(COCc2ccccc2)C(O)C1OCc1ccc2ccccc2c1 (stereo not shown) [compound 394],A3: inhibition of radioligand binding,"Human Melanocortin (MC3); [125I]-NDP-αMSH, human MC3 membranes, 10 µM",+ (“+” indicates greater than 50% inhibition at 10 μM)
same,A9: inhibition of radioligand binding,"[1]; [125I]-PYY, human NPY-Y1 membranes",− (“−” indicates less than 50% inhibition at 10 μM)
same,A1: inhibition of radioligand binding,"Human δ-opioid (DOP); [3H]-Bremazocine, human DOP membranes",− (“−” indicates less than 50% inhibition at 10 μM)
same,A7: inhibition of radioligand binding,"Human μ-opioid (MOP); [3H]-Naloxone, human MOP membranes",− (“−” indicates less than 50% inhibition at 10 μM)
same,A6: inhibition of radioligand binding,"[2]; [125I]-S36057, human MCH1 membranes",− (“−” indicates less than 50% inhibition at 10 μM)
same,A4: inhibition of radioligand binding,"Human Melanocortin (MC4); [125I]-NDP-αMSH, human MC4 membranes, 10 µM",+ (“+” indicates greater than 50% inhibition at 10 μM)
same,A10: inhibition of radioligand binding,"Human opioid (ORL1); [125I]-Nociceptin, human ORL1 membranes, 10 µM",− (“−” indicates less than 50% inhibition at 10 μM)
same,A8: inhibition of radioligand binding,"Human neurokinin (NK1); [125I]-Substance P, human NK1 membranes",+ (“+” indicates greater than 50% inhibition at 10 μM)
same,A2: inhibition of radioligand binding,"Human κ-Opioid (KOP); [3H]-Diprenorphine, human KOP membranes",− (“−” indicates less than 50% inhibition at 10 μM)
same,A11: inhibition of radioligand binding,"Mouse urotensin (mUR2); [125I]-Urotensin II, mouse mUR2 membranes",− (“−” indicates less than 50% inhibition at 10 μM)
same,A5: inhibition of radioligand binding,"Human melanocortin (MC5); [125I]-NDP-αMSH, human MC5 membranes",+ (“+” indicates greater than 50% inhibition at 10 μM)
COC[C@H]1OC(OCc2ccc3ccccc3c2)[C@H](NC(=O)CCNC(=N)N)[C@@H](OCc2ccc3ccccc3c2)[C@@H]1O (stereo partly shown) [compound 18],A3 radioligand binding inhibition,Human Melanocortin (MC3),− (“−” indicates less than 50% inhibition at 10 μM)
same,A9 radioligand binding inhibition,[1]; human NPY-Y1 membranes,− (“−” indicates less than 50% inhibition at 10 μM)
same,A1 radioligand binding inhibition,Human δ-opioid (DOP),− (“−” indicates less than 50% inhibition at 10 μM)
same,A7 radioligand binding inhibition,Human μ-opioid (MOP),+ (“+” indicates greater than 50% inhibition at 10 μM)
same,A6 radioligand binding inhibition,[2],+ (“+” indicates greater than 50% inhibition at 10 μM)
same,A4 radioligand binding inhibition,Human Melanocortin (MC4),− (“−” indicates less than 50% inhibition at 10 μM)
same,A10 radioligand binding inhibition,Human opioid (ORL1); human ORL1 membranes,− (“−” indicates less than 50% inhibition at 10 μM)
same,A8 radioligand binding inhibition,Human neurokinin (NK1),+ (“+” indicates greater than 50% inhibition at 10 μM)
same,A2 radioligand binding inhibition,Human κ-Opioid (KOP),− (“−” indicates less than 50% inhibition at 10 μM)
same,A11 radioligand binding inhibition,Mouse urotensin (mUR2),− (“−” indicates less than 50% inhibition at 10 μM)
same,A5 radioligand binding inhibition,Human melanocortin (MC5),+ (“+” indicates greater than 50% inhibition at 10 μM)
CO[C@H]1[C@H](O)[C@@H](COCc2ccc(-c3ccccc3)cc2)OC(OCc2ccc3ccccc3c2)[C@@H]1NC(=O)CCCN (stereo partly shown) [compound 68],A3 radioligand binding inhibition,Human Melanocortin (MC3),+ (“+” indicates greater than 50% inhibition at 10 μM)
same,A9 radioligand binding inhibition,[1]; human NPY-Y1 membranes,− (“−” indicates less than 50% inhibition at 10 μM)
same,A1 radioligand binding inhibition,Human δ-opioid (DOP),− (“−” indicates less than 50% inhibition at 10 μM)
same,A7 radioligand binding inhibition,Human μ-opioid (MOP),− (“−” indicates less than 50% inhibition at 10 μM)
same,A6 radioligand binding inhibition,[2],+ (“+” indicates greater than 50% inhibition at 10 μM)
same,A4 radioligand binding inhibition,Human Melanocortin (MC4),+ (“+” indicates greater than 50% inhibition at 10 μM)
same,A10 radioligand binding inhibition,Human opioid (ORL1); human ORL1 membranes,− (“−” indicates less than 50% inhibition at 10 μM)
same,A8 radioligand binding inhibition,Human neurokinin (NK1),+ (“+” indicates greater than 50% inhibition at 10 μM)
same,A2 radioligand binding inhibition,Human κ-Opioid (KOP),− (“−” indicates less than 50% inhibition at 10 μM)
same,A11 radioligand binding inhibition,Mouse urotensin (mUR2),− (“−” indicates less than 50% inhibition at 10 μM)
same,A5 radioligand binding inhibition,Human melanocortin (MC5),+ (“+” indicates greater than 50% inhibition at 10 μM)
COCC1OC(OCc2ccccc2)C(NC(=O)CNC(=N)N)C(OCc2ccc(-c3ccccc3)cc2)C1O (stereo not shown) [compound 183],"A3 radioligand binding, percentage inhibition",Human Melanocortin (MC3); [125I]-NDP-αMSH,− (“−” indicates less than 50% inhibition at 10 μM)
same,"A9 radioligand binding, percentage inhibition",[1]; [125I]-PYY,− (“−” indicates less than 50% inhibition at 10 μM)
same,"A1 radioligand binding, percentage inhibition",Human δ-opioid (DOP); [3H]-Bremazocine,− (“−” indicates less than 50% inhibition at 10 μM)
same,"A7 radioligand binding, percentage inhibition",Human μ-opioid (MOP); [3H]-Naloxone,− (“−” indicates less than 50% inhibition at 10 μM)
same,"A6 radioligand binding, percentage inhibition",[2]; [125I]-S36057,+ (“+” indicates greater than 50% inhibition at 10 μM)
same,"A4 radioligand binding, percentage inhibition",Human Melanocortin (MC4); [125I]-NDP-αMSH,+ (“+” indicates greater than 50% inhibition at 10 μM)
same,"A10 radioligand binding, percentage inhibition",Human opioid (ORL1); [125I]-Nociceptin,− (“−” indicates less than 50% inhibition at 10 μM)
same,"A8 radioligand binding, percentage inhibition",Human neurokinin (NK1); [125I]-Substance P,+ (“+” indicates greater than 50% inhibition at 10 μM)
same,"A2 radioligand binding, percentage inhibition",Human κ-Opioid (KOP); [3H]-Diprenorphine,− (“−” indicates less than 50% inhibition at 10 μM)
same,"A11 radioligand binding, percentage inhibition",Mouse urotensin (mUR2); [125I]-Urotensin II,− (“−” indicates less than 50% inhibition at 10 μM)
same,"A5 radioligand binding, percentage inhibition",Human melanocortin (MC5); [125I]-NDP-αMSH,+ (“+” indicates greater than 50% inhibition at 10 μM)
CSC1O[C@H](COCc2ccc(Cl)cc2)[C@@H](O)[C@@H](OCc2ccc(-c3ccccc3)cc2)[C@H]1NC(=O)CCN (stereo partly shown) [compound 290],"A3: inhibition of radioligand binding, human melanocortin (MC3)",Human Melanocortin (MC3); [125I]-NDP-αMSH,− (“−” indicates less than 50% inhibition at 10 μM)
same,"A9: inhibition of radioligand binding, human neuropeptide Y (NPY-Y1)",[1]; [125I]-PYY,− (“−” indicates less than 50% inhibition at 10 μM)
same,"A1: inhibition of radioligand binding, human δ-opioid (DOP)",Human δ-opioid (DOP); [3H]-Bremazocine,− (“−” indicates less than 50% inhibition at 10 μM)
same,"A7: inhibition of radioligand binding, human μ-opioid (MOP)",Human μ-opioid (MOP); [3H]-Naloxone,− (“−” indicates less than 50% inhibition at 10 μM)
same,"A6: inhibition of radioligand binding, human melanin-concentrating hormone (MCH1)",[2]; [125I]-S36057,− (“−” indicates less than 50% inhibition at 10 μM)
same,"A4: inhibition of radioligand binding, human melanocortin (MC4)",Human Melanocortin (MC4); [125I]-NDP-αMSH,− (“−” indicates less than 50% inhibition at 10 μM)
same,"A10: inhibition of radioligand binding, human opioid (ORL1)",Human opioid (ORL1); [125I]-Nociceptin,− (“−” indicates less than 50% inhibition at 10 μM)
same,"A8: inhibition of radioligand binding, human neurokinin (NK1)",Human neurokinin (NK1); [125I]-Substance P,+ (“+” indicates greater than 50% inhibition at 10 μM)
same,"A2: inhibition of radioligand binding, human κ-opioid (KOP)",Human κ-Opioid (KOP); [3H]-Diprenorphine,− (“−” indicates less than 50% inhibition at 10 μM)
same,"A11: inhibition of radioligand binding, mouse urotensin (mUR2)",Mouse urotensin (mUR2); [125I]-Urotensin II,− (“−” indicates less than 50% inhibition at 10 μM)
same,"A5: inhibition of radioligand binding, human melanocortin (MC5)",Human melanocortin (MC5); [125I]-NDP-αMSH,+ (“+” indicates greater than 50% inhibition at 10 μM)

# Reference: patent US20080009418A1, “Selective Inhibitors” (Alchemia LTD., priority 2004, published 2008)
